Source: the supplement of paper PMC10307832

Tests used:
Experiment in all cases: relative viability (nuclei count vs DMSO), 5 days (fraction); higher = more cells survive
NCI-H1437 = system: NCI-H1437
How it was run: (§1)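 Relative viability equals treated-well nuclei counts divided by vehicle-well nuclei counts. Counts came from 4× images of lung cancer cell lines grown in 1536-well plates for 5 days after pin-tool dosing on the day after seeding. Dosing used one drug alone or a fixed anchor-drug dose plus five library-drug doses (not always all listed) in √10 steps, and values are medians of duplicate plates.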

NCI-H2087 = system: NCI-H2087
How it was run: as §1

NCI-H650 = system: NCI-H650
How it was run: as §1

PC-3 [JPC-3] = system: PC-3 [JPC-3]
How it was run: as §1

LOU-NH91 = system: LOU-NH91
How it was run: as §1

H3255 = system: H3255
How it was run: as §1

201T = system: 201T
How it was run: as §1

NCI-H647 = system: NCI-H647
How it was run: as §1

LCLC-97TM1 = system: LCLC-97TM1
How it was run: as §1

BEN = system: BEN
How it was run: as §1

NCI-H1975 = system: NCI-H1975
How it was run: as §1

EPLC-272H = system: EPLC-272H
How it was run: as §1

SW 1573 = system: SW 1573
How it was run: as §1

NCI-H2085 = system: NCI-H2085
How it was run: as §1

EKVX = system: EKVX
How it was run: as §1

NCI-H2342 = system: NCI-H2342
How it was run: as §1

COR-L 105 = system: COR-L 105
How it was run: as §1

NCI-H1666 = system: NCI-H1666
How it was run: as §1

NCI-H2170 = system: NCI-H2170
How it was run: as §1

LU99A = system: LU99A
How it was run: as §1

HCC-827 = system: HCC-827
How it was run: as §1

CCN(CC)CCCCNc1ncc2cc(-c3cc(OC)cc(OC)c3)c(NC(=O)NC(C)(C)C)nc2n1 + COc1cc2c(Oc3ccc(NC(=O)C4(C(=O)Nc5ccc(F)cc5)CC4)cc3F)ccnc2cc1OCCCN1CCOCC1 [Foretinib] (partner 0.25 µM)
relative viability (NCI-H1437; first compound 0.01 µM): 1.47 | relative viability (NCI-H1437; first compound 0.03162 µM): 1.21 | relative viability (NCI-H1437; first compound 0.1 µM): 1.3 | relative viability (NCI-H1437; first compound 0.3162 µM): 1.3 | relative viability (NCI-H1437; first compound 1 µM): 1.16 | relative viability (NCI-H2087; first compound 0.01 µM): 1.25 | relative viability (NCI-H2087; first compound 0.03162 µM): 1.13 | relative viability (NCI-H2087; first compound 0.1 µM): 1.45 | relative viability (NCI-H2087; first compound 0.3162 µM): 1.16 | relative viability (NCI-H2087; first compound 1 µM): 1.21 | relative viability (NCI-H650; first compound 0.01 µM): 0.968 | relative viability (NCI-H650; first compound 0.03162 µM): 0.992 | relative viability (NCI-H650; first compound 0.1 µM): 1.06 | relative viability (NCI-H650; first compound 0.3162 µM): 1.09 | relative viability (NCI-H650; first compound 1 µM): 1.13 | relative viability (PC-3 [JPC-3]; first compound 0.01 µM): 1.08 | relative viability (PC-3 [JPC-3]; first compound 0.03162 µM): 1.07 | relative viability (PC-3 [JPC-3]; first compound 0.1 µM): 1.13 | relative viability (PC-3 [JPC-3]; first compound 0.3162 µM): 1.16 | relative viability (PC-3 [JPC-3]; first compound 1 µM): 1.04 | relative viability (LOU-NH91; first compound 0.01 µM): 0.927 | relative viability (LOU-NH91; first compound 0.03162 µM): 0.916 | relative viability (LOU-NH91; first compound 0.1 µM): 0.959 | relative viability (LOU-NH91; first compound 0.3162 µM): 0.977 | relative viability (LOU-NH91; first compound 1 µM): 0.912 | relative viability (H3255; first compound 0.01 µM): 0.898 | relative viability (H3255; first compound 0.03162 µM): 0.915 | relative viability (H3255; first compound 0.1 µM): 1.04 | relative viability (H3255; first compound 0.3162 µM): 0.943 | relative viability (H3255; first compound 1 µM): 0.85 | relative viability (201T; first compound 0.03162 µM): 1.06 | relative viability (201T; first compound 0.1 µM): 1.2 | relative viability (201T; first compound 0.3162 µM): 1.05 | relative viability (201T; first compound 1 µM): 1.03 | relative viability (NCI-H647; first compound 0.01 µM): 1.15 | relative viability (NCI-H647; first compound 0.03162 µM): 1.39 | relative viability (NCI-H647; first compound 0.1 µM): 1.43 | relative viability (NCI-H647; first compound 0.3162 µM): 1.55 | relative viability (NCI-H647; first compound 1 µM): 1.08 | relative viability (LCLC-97TM1; first compound 0.01 µM): 1.1 | relative viability (LCLC-97TM1; first compound 0.03162 µM): 0.94 | relative viability (LCLC-97TM1; first compound 0.1 µM): 1.03 | relative viability (LCLC-97TM1; first compound 0.3162 µM): 1.06 | relative viability (LCLC-97TM1; first compound 1 µM): 0.95 | relative viability (BEN; first compound 0.01 µM): 0.597 | relative viability (BEN; first compound 0.03162 µM): 0.544 | relative viability (BEN; first compound 0.1 µM): 0.796 | relative viability (BEN; first compound 0.3162 µM): 0.618 | relative viability (BEN; first compound 1 µM): 0.382 | relative viability (NCI-H1975; first compound 0.01 µM): 0.931 | relative viability (NCI-H1975; first compound 0.03162 µM): 0.956 | relative viability (NCI-H1975; first compound 0.1 µM): 1.29 | relative viability (NCI-H1975; first compound 0.3162 µM): 1.04 | relative viability (NCI-H1975; first compound 1 µM): 0.867 | relative viability (EPLC-272H; first compound 0.01 µM): 0.63 | relative viability (EPLC-272H; first compound 0.03162 µM): 0.877 | relative viability (EPLC-272H; first compound 0.1 µM): 0.693 | relative viability (EPLC-272H; first compound 0.3162 µM): 0.741 | relative viability (EPLC-272H; first compound 1 µM): 0.644 | relative viability (SW 1573; first compound 0.01 µM): 0.928 | relative viability (SW 1573; first compound 0.03162 µM): 0.878 | relative viability (SW 1573; first compound 0.1 µM): 0.924 | relative viability (SW 1573; first compound 0.3162 µM): 0.896 | relative viability (SW 1573; first compound 1 µM): 0.814 | relative viability (NCI-H2085; first compound 0.01 µM): 0.968 | relative viability (NCI-H2085; first compound 0.03162 µM): 0.821 | relative viability (NCI-H2085; first compound 0.1 µM): 1 | relative viability (NCI-H2085; first compound 0.3162 µM): 0.897 | relative viability (NCI-H2085; first compound 1 µM): 0.866 | relative viability (EKVX; first compound 0.01 µM): 0.589 | relative viability (EKVX; first compound 0.03162 µM): 0.471 | relative viability (EKVX; first compound 0.1 µM): 0.781 | relative viability (EKVX; first compound 0.3162 µM): 0.949 | relative viability (EKVX; first compound 1 µM): 0.758 | relative viability (NCI-H2342; first compound 0.01 µM): 1.19 | relative viability (NCI-H2342; first compound 0.03162 µM): 1.23 | relative viability (NCI-H2342; first compound 0.1 µM): 1.19 | relative viability (NCI-H2342; first compound 0.3162 µM): 1.03 | relative viability (NCI-H2342; first compound 1 µM): 1 | relative viability (COR-L 105; first compound 0.01 µM): 1.27 | relative viability (COR-L 105; first compound 0.03162 µM): 0.994 | relative viability (COR-L 105; first compound 0.1 µM): 1.23 | relative viability (COR-L 105; first compound 0.3162 µM): 0.909 | relative viability (COR-L 105; first compound 1 µM): 1.15 | relative viability (NCI-H1666; first compound 0.01 µM): 0.936 | relative viability (NCI-H1666; first compound 0.03162 µM): 0.979 | relative viability (NCI-H1666; first compound 0.1 µM): 0.977 | relative viability (NCI-H1666; first compound 0.3162 µM): 0.892 | relative viability (NCI-H1666; first compound 1 µM): 0.919 | relative viability (NCI-H2170; first compound 0.01 µM): 0.929 | relative viability (NCI-H2170; first compound 0.03162 µM): 1.05 | relative viability (NCI-H2170; first compound 0.1 µM): 0.961 | relative viability (NCI-H2170; first compound 0.3162 µM): 1.08 | relative viability (NCI-H2170; first compound 1 µM): 0.999 | relative viability (LU99A; first compound 0.01 µM): 0.828 | relative viability (LU99A; first compound 0.03162 µM): 0.888 | relative viability (LU99A; first compound 0.1 µM): 0.91 | relative viability (LU99A; first compound 0.3162 µM): 0.867 | relative viability (LU99A; first compound 1 µM): 0.782 | relative viability (HCC-827; first compound 0.01 µM): 1.05 | relative viability (HCC-827; first compound 0.03162 µM): 1.01 | relative viability (HCC-827; first compound 0.1 µM): 1.19 | relative viability (HCC-827; first compound 0.3162 µM): 1.17 | relative viability (HCC-827; first compound 1 µM): 1.05
